In PubChem BioAssay (NCI):
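Cultured in 96-well plates, cells were exposed to test compound for 48 hours across five concentrations. GI50 = concentration required for 50% inhibition of growth. TGI denotes the concentration required for complete inhibition of growth.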

Assays:
Test in all cases: NCI-60 cell line screen, 48 h
PC-3 prostate = tested on: PC-3 prostate
HOP-92 NSCLC = tested on: HOP-92 NSCLC
HCT-15 colon = tested on: HCT-15 colon
ACHN renal = tested on: ACHN renal
SNB-75 CNS = tested on: SNB-75 CNS
OVCAR-8 ovarian = tested on: OVCAR-8 ovarian
OVCAR-5 ovarian = tested on: OVCAR-5 ovarian
K-562 leukemia = tested on: K-562 leukemia
DLD-1 colon = tested on: DLD-1 colon
LXFL 529 NSCLC = tested on: LXFL 529 NSCLC

Structure (SMILES)	GI50 (PC-3 prostate)	TGI (PC-3 prostate)	GI50 (HOP-92 NSCLC)	TGI (HOP-92 NSCLC)	GI50 (HCT-15 colon)	TGI (HCT-15 colon)	GI50 (ACHN renal)	TGI (ACHN renal)	GI50 (SNB-75 CNS)	TGI (SNB-75 CNS)	GI50 (OVCAR-8 ovarian)	TGI (OVCAR-8 ovarian)	GI50 (OVCAR-5 ovarian)	TGI (OVCAR-5 ovarian)	GI50 (K-562 leukemia)	TGI (K-562 leukemia)	TGI (DLD-1 colon)	TGI (LXFL 529 NSCLC)
COc1cccc(CCC2CCCN(c3cc(C)nc(N)n3)C2)c1 (stereo unspecified)	0.379 µM	14.1 µM	0.519 µM	11.6 µM	0.418 µM	12.3 µM	0.625 µM	14.1 µM	0.194 µM	3.46 µM	0.531 µM	8.93 µM	1.54 µM	17.7 µM	0.259 µM	10.6 µM	–	–
COc1cc2nccc(Oc3ccc(NC(=O)NC4CC4)c(Cl)c3)c2cc1C(N)=O	42.5 µM	> 100 µM	7.06 µM	38.3 µM	32 µM	> 100 µM	9.17 µM	> 100 µM	2.82 µM	36.8 µM	17.5 µM	> 79.1 µM	47.4 µM	> 100 µM	3.63 µM	> 100 µM	–	–
COc1c(O)c(OC)c2oc(-c3ccc(O)c(O)c3)c(OC)c(=O)c2c1O	–	> 100 µM	–	66 µM	–	> 100 µM	–	> 100 µM	–	11.5 µM	–	> 100 µM	–	> 100 µM	–	> 100 µM	–	–
Cc1ccc(S(=O)(=O)c2ccc(NC(=O)SCCC(=O)O)cc2)cc1	–	–	–	–	–	> 100 µM	–	> 100 µM	–	> 100 µM	–	> 100 µM	–	> 100 µM	–	> 100 µM	> 100 µM	> 100 µM
COc1ccc(N=Cc2c(O)ccc3c2oc2cc(Cl)c(O)c(Cl)c23)cc1	14.8 µM	57.3 µM	6.09 µM	32.6 µM	7.38 µM	25.7 µM	6.22 µM	44.4 µM	12.7 µM	48.8 µM	15 µM	45.9 µM	17.5 µM	38.9 µM	5.63 µM	49.7 µM	–	–
Cc1cc(=O)[nH]c(N/N=C/c2cc(Br)ccc2O)n1	0.698 µM	> 100 µM	19.3 µM	> 100 µM	0.606 µM	> 100 µM	0.927 µM	> 100 µM	3.33 µM	> 100 µM	0.369 µM	35.6 µM	5.07 µM	> 100 µM	0.605 µM	> 100 µM	–	–
CC(C)(C)OC(=O)N[C@H]1CC(O)c2ccccc2N(CC(=O)O)C1=O (stereo partly specified)	–	–	–	> 100 µM	–	> 100 µM	–	> 100 µM	–	> 100 µM	–	> 100 µM	–	–	–	–	> 100 µM	> 100 µM
O=C(O)/C=C/C(=O)N1Cc2cc3ccccc3nc2C1	–	> 100 µM	–	> 100 µM	–	> 100 µM	–	> 100 µM	–	> 100 µM	–	> 100 µM	–	> 100 µM	–	> 100 µM	–	–
COC1C(CO)OC(n2c3ccccc3c3c4c(c5c6ccccc6[nH]c5c32)C(=O)NC4=O)C(O)C1O (stereo unspecified)	0.206 µM	7.06 µM	0.0792 µM	1.22 µM	0.524 µM	> 31.9 µM	< 0.0191 µM	0.0928 µM	0.158 µM	3.85 µM	0.0327 µM	1.48 µM	0.27 µM	2.24 µM	< 0.0145 µM	–	–	–
CSC1=Nc2c(c(C)c(-c3ccccc3)n2CCCN2CCCCC2)C2=NC(=O)C[C@H](C)N12	2.01 µM	10.1 µM	4.1 µM	48.9 µM	8.41 µM	> 53.2 µM	4.78 µM	43.8 µM	4.98 µM	32 µM	4.01 µM	> 55.7 µM	11.3 µM	> 100 µM	5.08 µM	87.6 µM	–	–
CCCCCCCCOCC(O)COC(C)C (stereo unspecified)	–	–	–	81.8 µM	–	> 100 µM	–	> 100 µM	–	–	–	> 100 µM	–	> 100 µM	–	96.6 µM	> 100 µM	> 100 µM
CCCCCCCC/C=C/CCCCCCCC1=NC(C)(C)CN1CC(C)O (stereo unspecified)	2.26 µM	8.08 µM	1.21 µM	5.58 µM	1.63 µM	3.27 µM	1.83 µM	3.55 µM	1.81 µM	4.23 µM	1.97 µM	3.9 µM	3.6 µM	10.4 µM	1.44 µM	3.27 µM	–	–
CC(=O)Nc1ccc(/C=c2\sc3nnc(CCC(=O)Nc4ccccc4Cl)n3c2=O)cc1	–	–	–	57.7 µM	–	> 100 µM	–	> 100 µM	–	–	–	> 10 µM	–	> 100 µM	–	68.3 µM	> 100 µM	> 100 µM
COC(=O)/C(=N\NC(N)=O)C(C(=O)C(=O)Nc1ccccc1OC)c1nc2ccc([N+](=O)[O-])cc2[nH]c1=O (stereo unspecified)	–	> 100 µM	–	> 100 µM	–	> 100 µM	–	> 100 µM	–	> 100 µM	–	> 100 µM	–	> 100 µM	–	> 100 µM	–	–
CC[C@@H]1[C@@H](C)O[C@@](O)([C@@H](C)[C@H](O)[C@H](C)[C@H]2OC(=O)/C=C/C=C/[C@H](C)[C@@H]([C@@H](C)[C@@H](O)[C@H](C)[C@@]3(O)C[C@@H](O[C@H]4C[C@@H](O)[C@H](O)C(C)O4)[C@H](CC)[C@@H](C)O3)OC(=O)/C=C/C=C/[C@@H]2C)C[C@H]1O[C@@H]1C[C@@H](O)[C@H](O)C(C)O1 (stereo partly specified)	0.0568 µM	0.147 µM	0.0381 µM	0.125 µM	0.459 µM	0.924 µM	0.111 µM	0.411 µM	0.0495 µM	0.149 µM	0.138 µM	0.557 µM	0.0839 µM	0.316 µM	0.116 µM	0.378 µM	–	–
Cc1ccc(Cl)cc1Nc1nc(C(F)(F)F)ccc1C(=O)N/N=C/c1cccnc1	1.99 µM	18.7 µM	1.55 µM	7.37 µM	0.693 µM	13.7 µM	3.63 µM	13.1 µM	4.93 µM	19.5 µM	3.05 µM	15.1 µM	3.44 µM	17.1 µM	1.71 µM	> 39 µM	–	–
COc1ccc(OC(C)=O)c2c1CCC=CC2=O	–	–	–	7.49 µM	–	30.1 µM	–	32 µM	–	29.3 µM	–	31.4 µM	–	31 µM	–	18.6 µM	–	21.5 µM
